The text below walks through data of patent publication US20250099420A1, “SMALL MOLECULE MODULATORS OF GPR139 COMPLEX” (University of Florida Research Foundation, Incorporated, priority 2022, published 2025).

One series has as its system parental HEK cells. Briefly: HEK parental Agonist Counterscreen Assay (non-transfected cells). Format: cell-based. Conditions: for Averaged Max % Response (±St. Dev.): activity relative to known control. An excerpt:
The high control for the agonist counterscreen was Forskolin not acetylcholine.
In general terms: Counterscreens check selectivity or assay interference.

In the next series the target is T1, GPR139 (Homo sapiens, UniProt Q6DWJ6).
T1 sequence (Q6DWJ6 1-353): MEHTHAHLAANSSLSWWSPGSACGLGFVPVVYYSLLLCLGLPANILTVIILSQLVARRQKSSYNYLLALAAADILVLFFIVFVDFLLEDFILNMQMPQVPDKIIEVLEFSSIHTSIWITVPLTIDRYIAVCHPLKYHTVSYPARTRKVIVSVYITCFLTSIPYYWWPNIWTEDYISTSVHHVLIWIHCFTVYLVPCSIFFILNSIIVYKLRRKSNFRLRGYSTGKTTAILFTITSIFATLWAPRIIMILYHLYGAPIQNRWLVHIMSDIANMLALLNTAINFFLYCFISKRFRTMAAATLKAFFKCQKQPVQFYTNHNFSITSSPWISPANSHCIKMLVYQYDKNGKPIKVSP
Description: GPR139 Agonist titration / agonist counterscreen assay (calcium detection, HEK-GPR139 cells). Format: cell-based. Set-up: expressed in transfected cells; host or cells: HEK Aequorin cells, Maxcyte transient transfection. The settings on record: GPR139 Agonist Activity; for Averaged Max % Response (±St. Dev.): activity relative to known control; for EC50: read-out: EC50. On the procedure: GPR activity was assessed using a calcium detection assay. […] Negative control samples were treated with DMSO. […] Intracellular calcium was measured using Calcium 5.

[1] abbreviates: Homo sapiens, HEK293, HEK Agonist Activity, parental non-transfected HEK cells.
Setting [2] is: Homo sapiens, HEK293, HEK Agonist Activity section of Table 4 (parental HEK counterscreen).
Where [3] appears, read: HEK Agonist Activity section of Table 4 (parental HEK counterscreen).
The mark [4] stands for this setting: values printed in E-notation without unit.

As usually defined, the EC50 is the concentration at which the effect is half-maximal.

Where two headings read alike, the source gives them in different places.

With `CC1=CN=C(CCc2ccc(F)c3ccccc23)C1` [SR-01000525232], the “Lipophilic Efficiency (logD)” value stood at 1.09 in the series on parental HEK cells (HEK Agonist Activity) and 4.05 on GPR139 (based on logD). Moreover, the figures for the “Lipophilic Efficiency (logP)” value in the series on parental HEK cells (HEK Agonist Activity) and on GPR139 (based on logP) were 1.09 and 4.05, respectively. For the same compound, the “Averaged Max % Response (±St. Dev.)” value with parental HEK cells (HEK Agonist Activity) was −17.88 ± 3.50%; at GPR139 it was 96.70 ± 23.19%. Besides, the EC50 in the series with parental HEK cells (setting [1]) was above 17400 nM. In addition, the “Hill Slope” value on GPR139 (fitted dose-response curve) is reported as 0.19. Besides, the “Efficiency Ligand” value at GPR139 (ligand efficiency) is on record as 0.57.
Consider `COc1ccc(SCC(=O)NNC(=S)Nc2ccccc2)cc1` [SR-01000526835], for which, in the series with parental HEK cells (HEK Agonist Activity section), the “Lipophilic Efficiency (logD)” value came to 1.85, the “Lipophilic Efficiency (logP)” value is listed as 1.85 and the “Averaged Max % Response (±St. Dev.)” value is listed as 7.64 ± 8.84%. Further, in the series on parental HEK cells (setting [2]), the EC50 is above 13900 nM. Moreover, at GPR139, the “Efficiency Ligand” value came to 0.37, the “Hill Slope” value was found to be 1.15, the “Lipophilic Efficiency (logD)” value came to 3.01 and the “Lipophilic Efficiency (logP)” value is 3.01. In addition, the “Averaged Max % Response (±St. Dev.)” value at GPR139 came to 81.65 ± 6.38%. Besides, the EC50 on GPR139 (HEK-GPR139 cells) worked out at 955 nM.
For `O=C(CCc1nc2ccccc2n1-c1ccccc1)NCCc1ccccc1` [SR-01000535824], the “Lipophilic Efficiency (logD)” value is on record as −0.133 in the series with parental HEK cells (HEK Agonist Activity) and 2.73 on GPR139 (based on logD). The “Lipophilic Efficiency (logP)” value with parental HEK cells (HEK Agonist Activity) was −0.133; at GPR139 (based on logP) it was 2.73. For the same compound, the “Averaged Max % Response (±St. Dev.)” value in the series on parental HEK cells (HEK Agonist Activity) worked out at 34.71 ± 16.19%; at GPR139 it was 136.02 ± 19.68%. The EC50 with parental HEK cells (setting [1]) is above 12100 nM. Moreover, on GPR139 (ligand efficiency), the “Efficiency Ligand” value is given as 0.39.
As to `CSc1cccc(NC(=O)C2C3C=CC4(O3)C2C(=O)N(C(C)c2ccccc2)C4C(=O)NC2CCCC(C)C2C)c1` (stereo not shown) [SR-01000545824], the “Lipophilic Efficiency (logD)” value with parental HEK cells (HEK Agonist Activity section) is −0.052; on GPR139 (based on logD), 1.92. Moreover, the results for the “Lipophilic Efficiency (logP)” value in the series with parental HEK cells (HEK Agonist Activity section) and on GPR139 (based on logP) were −0.052 and 1.92, respectively. Also, the EC50 in the series on parental HEK cells (setting [3]) is above 13600 nM; on GPR139 (setting [4]), 145 nM. For the same compound, the “Averaged Max % Response (±St. Dev.)” value was −0.19 ± 3.69% with parental HEK cells (HEK Agonist Activity section) and 103.05 ± 12.22% on GPR139. In addition, at GPR139 (fitted dose-response curve), the “Hill Slope” value was determined as 0.41. The “Efficiency Ligand” value on GPR139 (ligand efficiency) turned out to be 0.23.
As for `CSc1cccc(NC(=O)C2C3C=CC4(O3)C2C(=O)N(C(C)c2ccccc2)C4C(=O)NC2CCCCC2)c1` (stereo not shown) [SR-01000546462], the “Lipophilic Efficiency (logD)” value in the series with parental HEK cells (HEK Agonist Activity section) is 0.56; at GPR139 (based on logD), 2.98. Also, the “Lipophilic Efficiency (logP)” value in the series with parental HEK cells (HEK Agonist Activity section) was 0.56; on GPR139 (based on logP), 2.98. Besides, the EC50 is above 15100 nM with parental HEK cells (setting [3]) and 56.5 nM at GPR139 (setting [4]). Also, the “Averaged Max % Response (±St. Dev.)” value with parental HEK cells (HEK Agonist Activity section) is 0.58 ± 3.78%; on GPR139, 107.13 ± 9.94%. The “Hill Slope” value at GPR139 (fitted dose-response curve) came out at 0.51. Besides, at GPR139 (ligand efficiency), the “Efficiency Ligand” value came to 0.26.
Take `Cc1ccc(CN2CC34C=CC(O3)C(C(=O)NCCC3=CCCCC3)C4C2=O)cc1` (stereo not shown) [SR-01000550322]: in the series with parental HEK cells (HEK Agonist Activity section), the “Lipophilic Efficiency (logD)” value is on record as 1.99, the “Lipophilic Efficiency (logP)” value is given as 1.99 and the “Averaged Max % Response (±St. Dev.)” value was −6.25 ± 1.61%. Further, in the series on parental HEK cells (setting [3]), the EC50 was above 13400 nM. For the same compound, at GPR139, the “Efficiency Ligand” value is listed as 0.27, the “Hill Slope” value came out at 0.73, the “Lipophilic Efficiency (logD)” value was found to be 2.87 and the “Lipophilic Efficiency (logP)” value is on record as 2.87. On GPR139, the “Averaged Max % Response (±St. Dev.)” value is 86.57 ± 2.15%. For the same compound, the EC50 on GPR139 (HEK-GPR139 cells) turned out to be 1800 nM.
For `CCc1cc(C2=C/C(=C/c3c(OC)ccc4ccccc34)C(=O)O2)cc(OC)c1OC` [SR-01000551463], the figures for the “Lipophilic Efficiency (logD)” value in the series on parental HEK cells (HEK Agonist Activity section) and on GPR139 (based on logD) were 0.71 and 3.11, respectively. In addition, the “Lipophilic Efficiency (logP)” value with parental HEK cells (HEK Agonist Activity section) is reported as 0.71; at GPR139 (based on logP), 3.11. The results for the “Averaged Max % Response (±St. Dev.)” value with parental HEK cells (HEK Agonist Activity section) and on GPR139 were 18.60 ± 9.91% and 110.88 ± 6.83%, respectively. In addition, the results for the EC50 in the series with parental HEK cells (setting [2]) and at GPR139 (setting [4]) were above 12200 nM and 49.6 nM, respectively. At GPR139 (fitted dose-response curve), the “Hill Slope” value is reported as 0.64. The “Efficiency Ligand” value on GPR139 (ligand efficiency) was found to be 0.33.
With `C=C1N=C(NC2CCCCCC2)c2ccccc2N1` [SR-01000565308], in the series with parental HEK cells (HEK Agonist Activity section), the “Lipophilic Efficiency (logD)” value is reported as 1.03, the “Lipophilic Efficiency (logP)” value was found to be 0.98 and the “Averaged Max % Response (±St. Dev.)” value was found to be 25.00 ± 13.25%. Further, in the series on parental HEK cells (setting [2]), the EC50 is above 17500 nM. Besides, at GPR139, the “Efficiency Ligand” value was 0.45, the “Hill Slope” value came out at 1.89, the “Lipophilic Efficiency (logD)” value was found to be 2.40 and the “Lipophilic Efficiency (logP)” value worked out at 2.36. Moreover, the “Averaged Max % Response (±St. Dev.)” value at GPR139 is reported as 90.10 ± 8.93%.
Take `Cc1cccc(-n2cnc3cc(C(=O)NCc4ccc5c(c4)OCO5)ccc32)c1` [SR-01000579592]: in the series with parental HEK cells (HEK Agonist Activity section), the “Lipophilic Efficiency (logD)” value came to 0.80, the “Lipophilic Efficiency (logP)” value is given as 0.80 and the “Averaged Max % Response (±St. Dev.)” value is on record as −14.67 ± 10.75%. Further, the EC50 in the series with parental HEK cells (setting [2]) is above 13300 nM. At GPR139, the “Efficiency Ligand” value was 0.28, the “Lipophilic Efficiency (logD)” value was 1.75, the “Lipophilic Efficiency (logP)” value stood at 1.75 and the “Averaged Max % Response (±St. Dev.)” value is 96.78 ± 10.47%. Further, at GPR139 (HEK-GPR139 cells), the EC50 was above 1500 nM.
For the compound `CC12C=CC3(CN(Cc4ccccc4)C(=O)C3C1C(=O)NCc1ccco1)O2` (stereo not shown) [SR-01000582958], the “Lipophilic Efficiency (logD)” value was 3.51 with parental HEK cells (HEK Agonist Activity section) and 5.28 on GPR139 (based on logD). In addition, the “Lipophilic Efficiency (logP)” value in the series with parental HEK cells (HEK Agonist Activity section) is 3.51; on GPR139 (based on logP) it was 5.28. Besides, the EC50 in the series with parental HEK cells (setting [3]) is above 13400 nM; on GPR139 (setting [4]) it was 228 nM. Further, the “Averaged Max % Response (±St. Dev.)” value in the series with parental HEK cells (HEK Agonist Activity section) is recorded as 10.03 ± 5.09%; at GPR139 it was 101.07 ± 20.22%. Also, the “Hill Slope” value at GPR139 (fitted dose-response curve) came out at 0.87. In addition, the “Efficiency Ligand” value at GPR139 (ligand efficiency) came to 0.33.
With `CC12C=CC3(CN(Cc4ccccc4)C(=O)C3C1C(=O)NCC1COc3ccccc3O1)O2` (stereo not shown) [SR-01000582967], in the series with parental HEK cells (HEK Agonist Activity section), the “Lipophilic Efficiency (logD)” value is 2.93, the “Lipophilic Efficiency (logP)” value is 2.93 and the “Averaged Max % Response (±St. Dev.)” value is given as −6.63 ± 2.99%. For the same compound, the EC50 in the series with parental HEK cells (setting [3]) was above 13100 nM. Besides, on GPR139, the “Efficiency Ligand” value is on record as 0.27, the “Hill Slope” value worked out at 0.38, the “Lipophilic Efficiency (logD)” value turned out to be 4.47 and the “Lipophilic Efficiency (logP)” value amounted to 4.47. For the same compound, the “Averaged Max % Response (±St. Dev.)” value at GPR139 worked out at 117.27 ± 2.34%. Besides, at GPR139 (HEK-GPR139 cells), the EC50 stood at 375 nM.
Take `CC1CC(C)CN(C(=O)C2C3C=CC4(CN(Cc5ccccc5Cl)C(=O)C24)O3)C1` (stereo not shown) [SR-01000583192]: the “Lipophilic Efficiency (logD)” value is listed as 2.09 with parental HEK cells (HEK Agonist Activity section) and 4.61 at GPR139 (based on logD). In addition, the “Lipophilic Efficiency (logP)” value in the series on parental HEK cells (HEK Agonist Activity section) was 2.09; at GPR139 (based on logP) it was 4.61. Further, the EC50 with parental HEK cells (setting [3]) was above 15900 nM; at GPR139 (setting [4]), 48.1 nM. Further, the “Averaged Max % Response (±St. Dev.)” value in the series on parental HEK cells (HEK Agonist Activity section) is listed as 13.45 ± 13.24%; on GPR139 it was 108.22 ± 25.63%. Further, at GPR139 (fitted dose-response curve), the “Hill Slope” value was 0.51. For the same compound, the “Efficiency Ligand” value on GPR139 (ligand efficiency) turned out to be 0.35.
